In the supplement of paper PMC8092582:
Structures can show the parent of a compound that is named as a salt. ± gives the standard deviation of the averaged measurements.

Test system: HeLa
Test: cell viability (CellTiter-Glo) relative to median of lowest-dilution wells of all drugs (fraction); higher = more viable cells
Protocol: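 HeLa control and CRISPR DDX11 knockout cells were seeded in 384-well plates and incubated for 72 h with each of 64 […] drugs at six concentrations. Viability was read with CellTiter-Glo and normalised to the median of the lowest (6th) dilution wells of all drugs. Two biological replicates (BR1, BR2) are averaged; the concentration unit is not stated.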

[1] = drug concentration (unit not stated): 0.04, genotype: DDX11 knockout
[2] = drug concentration (unit not stated): 0.04, genotype: control (DDX11 wild type)
[3] = drug concentration (unit not stated): 0.12, genotype: DDX11 knockout
[4] = drug concentration (unit not stated): 0.12, genotype: control (DDX11 wild type)
[5] = drug concentration (unit not stated): 0.37, genotype: DDX11 knockout
[6] = drug concentration (unit not stated): 0.37, genotype: control (DDX11 wild type)
[7] = drug concentration (unit not stated): 1.11, genotype: DDX11 knockout
[8] = drug concentration (unit not stated): 1.11, genotype: control (DDX11 wild type)
[9] = drug concentration (unit not stated): 3.33, genotype: DDX11 knockout
[10] = drug concentration (unit not stated): 3.33, genotype: control (DDX11 wild type)
[11] = drug concentration (unit not stated): 10, genotype: DDX11 knockout
[12] = drug concentration (unit not stated): 10, genotype: control (DDX11 wild type)
[13] = drug concentration (unit not stated): 0.01, genotype: DDX11 knockout
[14] = drug concentration (unit not stated): 0.01, genotype: control (DDX11 wild type)
[15] = drug concentration (unit not stated): 30, genotype: DDX11 knockout
[16] = drug concentration (unit not stated): 30, genotype: control (DDX11 wild type)

| SMILES | cell viability [1] | cell viability [2] | cell viability [3] | cell viability [4] | cell viability [5] | cell viability [6] | cell viability [7] | cell viability [8] | cell viability [9] | cell viability [10] | cell viability [11] | cell viability [12] | cell viability [13] | cell viability [14] | cell viability [15] | cell viability [16] |
| --- | --- | --- | --- | --- | --- | --- | --- | --- | --- | --- | --- | --- | --- | --- | --- | --- |
| O=c1cc(N2CCOCC2)oc2c(-c3cccc4c3sc3ccccc34)cccc12 [NU7441] | 0.982 ± 0.06 | 0.9779 ± 0.0026 | 0.953 ± 0.032 | 0.963 ± 0.011 | 1.02 ± 0.073 | 0.9893 ± 0.0052 | 0.972 ± 0.013 | 1.019 ± 0.0044 | 0.918 ± 0.066 | 0.992 ± 0.14 | 0.834 ± 0.15 | 0.935 ± 0.37 |  |  |  |  |
| COc1ccc(C2=N[C@@H](c3ccc(Cl)cc3)[C@@H](c3ccc(Cl)cc3)N2C(=O)N2CCNC(=O)C2)c(OC(C)C)c1 [Nutlin-3] | 0.977 ± 0.022 | 0.944 ± 0.013 | 0.981 ± 0.057 | 0.9784 ± 0.0054 | 0.983 ± 0.047 | 1.029 ± 0.0079 | 0.9903 ± 0.0028 | 0.956 ± 0.0068 | 0.965 ± 0.026 | 1.035 ± 0.0094 | 0.9631 ± 0.0059 | 1.06 ± 0.096 |  |  |  |  |
| COC1=CC(c2cc3ccccc3[nH]2)=N/C1=C\c1[nH]c(C)cc1C [Obatoclax mesylate] | 1.07 ± 0.017 | 1.01 ± 0.056 | 0.872 ± 0.087 | 1.05 ± 0.19 | 0.56 ± 0.044 | 0.728 ± 0.13 | 0.307 ± 0.026 | 0.415 ± 0.13 | 0.25 ± 0.017 | 0.344 ± 0.14 | 0.141 ± 0.062 | 0.0791 ± 0.041 |  |  |  |  |
| O=C(c1cc(Cc2n[nH]c(=O)c3ccccc23)ccc1F)N1CCN(C(=O)C2CC2)CC1 [Olaparib] | 1.072 ± 0.0052 | 1.02 ± 0.032 | 1.02 ± 0.024 | 1.04 ± 0.043 | 0.953 ± 0.063 | 0.959 ± 0.036 | 0.954 ± 0.037 | 0.967 ± 0.035 | 0.796 ± 0.076 | 0.987 ± 0.011 | 0.677 ± 0.083 | 1.01 ± 0.066 |  |  |  |  |
| CC(=O)O[C@H]1C(=O)[C@@]2(C)[C@H]([C@H](OC(=O)c3ccccc3)[C@]3(O)C[C@H](OC(=O)[C@H](O)[C@@H](NC(=O)c4ccccc4)c4ccccc4)C(C)=C1C3(C)C)[C@]1(OC(C)=O)CO[C@@H]1C[C@@H]2O [Paclitaxel (Taxol)] | 0.26 ± 0.017 | 0.379 ± 0.11 | 0.203 ± 0.0074 | 0.148 ± 0.021 | 0.2001 ± 0.00037 | 0.169 ± 0.016 | 0.197 ± 0.031 | 0.2 ± 0.042 | 0.179 ± 0.033 | 0.139 ± 0.0065 |  |  | 0.44 ± 0.12 | 0.515 ± 0.11 |  |  |
| CC(=O)c1c(C)c2cnc(Nc3ccc(N4CCNCC4)cn3)nc2n(C2CCCC2)c1=O [Palbociclib] |  |  | 1.02 ± 0.084 | 1.017 ± 0.00052 | 1.0721 ± 0.001 | 1.01 ± 0.017 | 1.009 ± 0.0063 | 1.02 ± 0.025 | 1.03 ± 0.054 | 1.01 ± 0.022 | 0.9 ± 0.0099 | 0.986 ± 0.11 |  |  | 0.658 ± 0.045 | 0.893 ± 0.26 |
| Nc1nc2[nH]cc(CCc3ccc(C(=O)N[C@@H](CCC(=O)O)C(=O)O)cc3)c2c(=O)[nH]1 [Pemetrexed] | 0.983 ± 0.29 | 0.903 ± 0.41 | 0.911 ± 0.26 | 0.98 ± 0.53 | 0.781 ± 0.21 | 0.814 ± 0.4 | 0.741 ± 0.18 | 0.756 ± 0.34 |  |  |  |  | 1 ± 0.099 | 0.99 ± 0.11 |  |  |
| CO[C@H]1C[C@@H]2CC[C@@H](C)[C@@](O)(O2)C(=O)C(=O)N2CCCC[C@H]2C(=O)O[C@H]([C@H](C)C[C@@H]2CC[C@@H](O)[C@H](OC)C2)CC(=O)[C@H](C)/C=C(\C)[C@@H](O)[C@@H](OC)C(=O)[C@H](C)C[C@H](C)/C=C/C=C/C=C/1C [Rapamycin (Sirolimus)] | 0.755 ± 0.13 | 0.883 ± 0.33 | 0.786 ± 0.18 | 0.887 ± 0.33 | 0.706 ± 0.11 | 0.903 ± 0.33 | 0.718 ± 0.11 | 0.878 ± 0.35 | 0.67 ± 0.12 | 0.84 ± 0.35 |  |  | 0.764 ± 0.11 | 0.916 ± 0.33 |  |  |
| CC[C@H](CO)Nc1nc(NCc2ccccc2)c2ncn(C(C)C)c2n1 [Seliciclib (Roscovitine)] |  |  | 0.992 ± 0.018 | 0.946 ± 0.036 | 1.008 ± 0.0031 | 0.98 ± 0.018 | 1.04 ± 0.021 | 1 ± 0.033 | 1 ± 0.012 | 0.994 ± 0.038 | 1.01 ± 0.051 | 1.028 ± 0.008 |  |  | 0.577 ± 0.26 | 0.893 ± 0.38 |
| Cn1cnc2c(F)c(Nc3ccc(Br)cc3Cl)c(C(=O)NOCCO)cc21 [Selumetinib (AZD6244)] | 0.991 ± 0.022 | 0.985 ± 0.059 | 0.963 ± 0.029 | 0.957 ± 0.085 | 0.9 ± 0.078 | 0.95 ± 0.15 | 0.902 ± 0.082 | 0.955 ± 0.12 | 0.855 ± 0.067 | 0.935 ± 0.22 | 0.744 ± 0.13 | 0.913 ± 0.38 |  |  |  |  |
| Nc1nc2[nH]cnc2c(=S)[nH]1 [Thioguanine] | 1.03 ± 0.045 | 1.04 ± 0.04 | 0.992 ± 0.017 | 0.971 ± 0.044 | 0.94 ± 0.039 | 0.762 ± 0.065 | 0.731 ± 0.15 | 0.428 ± 0.15 | 0.536 ± 0.12 | 0.433 ± 0.21 | 0.239 ± 0.025 | 0.387 ± 0.2 |  |  |  |  |
| CC[C@@]1(O)C(=O)OCc2c1cc1n(c2=O)Cc2cc3c(CN(C)C)c(O)ccc3nc2-1 [Topotecan HCl] | 0.519 ± 0.38 | 0.709 ± 0.57 | 0.206 ± 0.19 | 0.228 ± 0.21 | 0.0639 ± 0.033 | 0.0738 ± 0.043 | 0.0268 ± 0.0046 | 0.0567 ± 0.046 | 0.0244 ± 0.0069 | 0.0265 ± 0.01 |  |  | 0.74 ± 0.27 | 0.86 ± 0.14 |  |  |
| Cc1cc(Nc2cc(N3CCN(C)CC3)nc(Sc3ccc(NC(=O)C4CC4)cc3)n2)n[nH]1 [Tozasertib (VX-680)] |  |  | 0.959 ± 0.016 | 0.978 ± 0.1 | 0.951 ± 0.025 | 1.1 ± 0.2 | 0.976 ± 0.087 | 1.03 ± 0.22 | 0.912 ± 0.048 | 1.02 ± 0.23 | 0.823 ± 0.04 | 0.975 ± 0.22 |  |  | 0.659 ± 0.067 | 0.764 ± 0.19 |
| COc1cc2c(cc1O)CCN[C@]21CS[C@@H]2c3c(OC(C)=O)c(C)c4c(c3[C@H](COC1=O)N1[C@@H]2[C@H]2c3c(cc(C)c(OC)c3O)C[C@@H]([C@@H]1O)N2C)OCO4 [Trabectedin (Yondelis)] | 1.01 ± 0.044 | 1 ± 0.031 | 1 ± 0.034 | 1.02 ± 0.034 | 0.9874 ± 0.0059 | 1.02 ± 0.025 | 0.913 ± 0.14 | 1.034 ± 0.0075 |  |  |  |  | 1.061 ± 0.0098 | 1.05 ± 0.0085 |  |  |
